Columns and labels:
Choline Kinase beta = Choline Kinase beta (Homo sapiens, UniProt Q9Y259); assay: Lipid kinase panel, ADP-Glo; format: biochemical
Excerpt: (§1) Kinase % activity remaining s.d.
(§2) Choline Kinase alpha 101.6 3.2

DGK beta = DGK beta (Homo sapiens, UniProt Q9Y6T7); assay: Lipid kinase panel, ADP-Glo; format: biochemical
Excerpt: as §1, §2

SPHK2 = SPHK2 (Homo sapiens, UniProt Q9NRA0); assay: Lipid kinase panel, ADP-Glo; format: biochemical; details: SPHK2, 10 μM
Excerpt: as §1, §2

PI3Kalpha = PI3Kalpha (Homo sapiens, UniProt P42336); assay: Lipid kinase panel, ADP-Glo; format: biochemical
Excerpt: as §1, §2

PI3K gamma = PI3K gamma (Homo sapiens, UniProt P48736); assay: Lipid kinase panel, ADP-Glo; format: biochemical
Excerpt: as §1, §2

PI3Ka E524K +P85 = assay: Lipid kinase panel, ADP-Glo; format: biochemical; details: PI3Ka E524K +P85, 10 μM
Excerpt: as §1, §2

PIP5K2a = PIP5K2a (Homo sapiens, UniProt P48426); assay: Lipid kinase panel, ADP-Glo; format: biochemical
Excerpt: as §1, §2

PI4K2a = PI4K2a (Homo sapiens, UniProt Q9BTU6); assay: Lipid kinase panel, ADP-Glo; format: biochemical
Excerpt: as §1, §2

PIK4Ca = PIK4Ca (Homo sapiens, UniProt P42356); assay: Lipid kinase panel, ADP-Glo; format: biochemical
Excerpt: as §1, §2

PI3KA E545K +P85 = PI3KA E545K +P85 (Homo sapiens, UniProt P42336, E545K); assay: Lipid kinase panel, ADP-Glo; format: biochemical; details: PI3KA E545K +P85, 10 μM
Excerpt: as §1, §2

MLK1 = MLK1 (Homo sapiens, UniProt P80192); assay: Kinase panel, radiometric 33P filter binding; details: read-out: % activity remaining
Excerpt: (§3) filter binding assay using 33P-g-ATPat the MRC PPU International Centre for Kinase Profiling, University of

BRK = BRK (Homo sapiens, UniProt Q13882); assay: Kinase panel, radiometric 33P filter binding; details: read-out: % activity remaining
Excerpt: as §3

BRSK2 = BRSK2 (Homo sapiens, UniProt Q8IWQ3); assay: Kinase panel, radiometric 33P filter binding; details: read-out: % activity remaining
Excerpt: as §3

EPH-A4 = EPH-A4 (Homo sapiens, UniProt P54764); assay: Kinase panel, radiometric 33P filter binding; details: read-out: % activity remaining
Excerpt: as §3

MST2 = MST2 (Homo sapiens, UniProt Q13188); assay: Kinase panel, radiometric 33P filter binding; details: read-out: % activity remaining
PIM3 = PIM3 (Homo sapiens, UniProt Q86V86); assay: Kinase panel, radiometric 33P filter binding; details: read-out: % activity remaining
Excerpt: as §3

FGF-R1 = FGF-R1 (Homo sapiens, UniProt P11362); assay: Kinase panel, radiometric 33P filter binding; details: read-out: % activity remaining
Chain of FGF-R1 (P11362 22-822): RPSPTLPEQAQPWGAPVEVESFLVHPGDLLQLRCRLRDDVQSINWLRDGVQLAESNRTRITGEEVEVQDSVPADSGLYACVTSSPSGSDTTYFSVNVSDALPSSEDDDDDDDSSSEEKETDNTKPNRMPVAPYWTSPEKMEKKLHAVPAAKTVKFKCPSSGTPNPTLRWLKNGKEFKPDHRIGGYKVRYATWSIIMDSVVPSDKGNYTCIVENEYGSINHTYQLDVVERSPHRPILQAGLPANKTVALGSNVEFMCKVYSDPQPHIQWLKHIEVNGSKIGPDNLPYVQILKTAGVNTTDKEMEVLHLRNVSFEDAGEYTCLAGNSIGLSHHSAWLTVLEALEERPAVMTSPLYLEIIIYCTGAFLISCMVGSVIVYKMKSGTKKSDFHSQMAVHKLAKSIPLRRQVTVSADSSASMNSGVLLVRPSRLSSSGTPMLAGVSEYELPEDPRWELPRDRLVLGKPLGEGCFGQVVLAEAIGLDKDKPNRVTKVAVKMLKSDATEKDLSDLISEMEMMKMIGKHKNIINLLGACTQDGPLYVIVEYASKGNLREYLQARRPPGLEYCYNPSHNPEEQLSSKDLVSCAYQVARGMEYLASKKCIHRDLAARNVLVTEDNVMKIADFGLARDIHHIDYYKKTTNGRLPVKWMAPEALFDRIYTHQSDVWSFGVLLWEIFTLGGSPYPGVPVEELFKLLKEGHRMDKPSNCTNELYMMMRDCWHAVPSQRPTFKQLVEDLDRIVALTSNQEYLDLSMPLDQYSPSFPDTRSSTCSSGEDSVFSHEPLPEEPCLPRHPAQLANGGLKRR
Excerpt: as §3

GCK = GCK (Homo sapiens, UniProt Q12851); assay: Kinase panel, radiometric 33P filter binding; details: read-out: % activity remaining
Excerpt: as §3

CHK2 = CHK2 (Homo sapiens, UniProt O96017); assay: Kinase panel, radiometric 33P filter binding; details: read-out: % activity remaining
Excerpt: as §3

MSK1 = MSK1 (Homo sapiens, UniProt O75582); assay: Kinase panel, radiometric 33P filter binding; details: read-out: % activity remaining
Aurora B = Aurora B (Homo sapiens, UniProt Q96GD4); assay: Kinase panel, radiometric 33P filter binding; details: read-out: % activity remaining
Excerpt: as §3

WNK1 = WNK1 (Homo sapiens, UniProt Q9H4A3); assay: Kinase panel, radiometric 33P filter binding; details: read-out: % activity remaining
Excerpt: as §3

HIPK2 = HIPK2 (Homo sapiens, UniProt Q9H2X6); assay: Kinase panel, radiometric 33P filter binding; details: read-out: % activity remaining
Chain of HIPK2 (Q9H2X6 whole entry): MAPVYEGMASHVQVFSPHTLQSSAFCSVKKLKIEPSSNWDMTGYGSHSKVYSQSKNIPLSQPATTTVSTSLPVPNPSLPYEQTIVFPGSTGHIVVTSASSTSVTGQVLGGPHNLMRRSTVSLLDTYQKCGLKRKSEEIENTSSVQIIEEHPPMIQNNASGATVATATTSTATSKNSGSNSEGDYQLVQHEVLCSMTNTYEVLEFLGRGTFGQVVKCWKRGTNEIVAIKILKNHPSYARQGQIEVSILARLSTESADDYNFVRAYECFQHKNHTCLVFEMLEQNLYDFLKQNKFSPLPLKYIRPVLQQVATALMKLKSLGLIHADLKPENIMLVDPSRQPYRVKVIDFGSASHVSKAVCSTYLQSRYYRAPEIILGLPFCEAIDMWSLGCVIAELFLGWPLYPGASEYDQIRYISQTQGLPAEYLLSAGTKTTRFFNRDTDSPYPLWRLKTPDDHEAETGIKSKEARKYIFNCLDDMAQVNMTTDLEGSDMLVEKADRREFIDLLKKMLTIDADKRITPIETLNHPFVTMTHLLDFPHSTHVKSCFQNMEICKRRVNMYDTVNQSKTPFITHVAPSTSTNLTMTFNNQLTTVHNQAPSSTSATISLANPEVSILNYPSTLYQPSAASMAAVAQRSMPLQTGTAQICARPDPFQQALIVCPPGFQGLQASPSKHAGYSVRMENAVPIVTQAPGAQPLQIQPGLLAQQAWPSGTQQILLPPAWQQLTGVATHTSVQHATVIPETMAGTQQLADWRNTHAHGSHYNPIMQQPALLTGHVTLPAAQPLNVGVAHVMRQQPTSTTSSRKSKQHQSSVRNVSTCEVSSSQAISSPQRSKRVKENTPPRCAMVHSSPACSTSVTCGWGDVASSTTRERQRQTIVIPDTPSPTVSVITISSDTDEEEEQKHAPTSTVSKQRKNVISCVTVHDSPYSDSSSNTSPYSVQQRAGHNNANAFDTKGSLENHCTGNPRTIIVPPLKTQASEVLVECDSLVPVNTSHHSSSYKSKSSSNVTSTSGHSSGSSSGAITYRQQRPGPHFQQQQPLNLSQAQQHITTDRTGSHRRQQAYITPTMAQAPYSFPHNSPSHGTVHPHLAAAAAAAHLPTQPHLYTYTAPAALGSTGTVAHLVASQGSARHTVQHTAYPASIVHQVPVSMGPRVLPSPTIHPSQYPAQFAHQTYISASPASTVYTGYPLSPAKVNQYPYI
Excerpt: as §3

ERK1 = ERK1 (Homo sapiens, UniProt P27361); assay: Kinase panel, radiometric 33P filter binding; details: read-out: % activity remaining
Chain of ERK1 (P27361 whole entry): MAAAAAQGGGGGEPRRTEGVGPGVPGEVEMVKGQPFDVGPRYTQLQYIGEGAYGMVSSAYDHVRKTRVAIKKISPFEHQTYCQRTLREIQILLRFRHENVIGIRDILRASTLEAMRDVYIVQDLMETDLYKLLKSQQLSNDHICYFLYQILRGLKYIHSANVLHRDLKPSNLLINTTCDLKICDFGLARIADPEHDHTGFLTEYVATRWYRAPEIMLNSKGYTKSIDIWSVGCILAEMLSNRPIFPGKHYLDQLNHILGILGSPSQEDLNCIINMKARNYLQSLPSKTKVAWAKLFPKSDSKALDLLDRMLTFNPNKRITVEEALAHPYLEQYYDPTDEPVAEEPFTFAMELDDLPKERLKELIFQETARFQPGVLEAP

PAK6 = PAK6 (Homo sapiens, UniProt Q9NQU5); assay: Kinase panel, radiometric 33P filter binding; details: read-out: % activity remaining
TTBK1 = TTBK1 (Homo sapiens, UniProt Q5TCY1); assay: Kinase panel, radiometric 33P filter binding; details: read-out: % activity remaining
Chain of TTBK1 (Q5TCY1 whole entry): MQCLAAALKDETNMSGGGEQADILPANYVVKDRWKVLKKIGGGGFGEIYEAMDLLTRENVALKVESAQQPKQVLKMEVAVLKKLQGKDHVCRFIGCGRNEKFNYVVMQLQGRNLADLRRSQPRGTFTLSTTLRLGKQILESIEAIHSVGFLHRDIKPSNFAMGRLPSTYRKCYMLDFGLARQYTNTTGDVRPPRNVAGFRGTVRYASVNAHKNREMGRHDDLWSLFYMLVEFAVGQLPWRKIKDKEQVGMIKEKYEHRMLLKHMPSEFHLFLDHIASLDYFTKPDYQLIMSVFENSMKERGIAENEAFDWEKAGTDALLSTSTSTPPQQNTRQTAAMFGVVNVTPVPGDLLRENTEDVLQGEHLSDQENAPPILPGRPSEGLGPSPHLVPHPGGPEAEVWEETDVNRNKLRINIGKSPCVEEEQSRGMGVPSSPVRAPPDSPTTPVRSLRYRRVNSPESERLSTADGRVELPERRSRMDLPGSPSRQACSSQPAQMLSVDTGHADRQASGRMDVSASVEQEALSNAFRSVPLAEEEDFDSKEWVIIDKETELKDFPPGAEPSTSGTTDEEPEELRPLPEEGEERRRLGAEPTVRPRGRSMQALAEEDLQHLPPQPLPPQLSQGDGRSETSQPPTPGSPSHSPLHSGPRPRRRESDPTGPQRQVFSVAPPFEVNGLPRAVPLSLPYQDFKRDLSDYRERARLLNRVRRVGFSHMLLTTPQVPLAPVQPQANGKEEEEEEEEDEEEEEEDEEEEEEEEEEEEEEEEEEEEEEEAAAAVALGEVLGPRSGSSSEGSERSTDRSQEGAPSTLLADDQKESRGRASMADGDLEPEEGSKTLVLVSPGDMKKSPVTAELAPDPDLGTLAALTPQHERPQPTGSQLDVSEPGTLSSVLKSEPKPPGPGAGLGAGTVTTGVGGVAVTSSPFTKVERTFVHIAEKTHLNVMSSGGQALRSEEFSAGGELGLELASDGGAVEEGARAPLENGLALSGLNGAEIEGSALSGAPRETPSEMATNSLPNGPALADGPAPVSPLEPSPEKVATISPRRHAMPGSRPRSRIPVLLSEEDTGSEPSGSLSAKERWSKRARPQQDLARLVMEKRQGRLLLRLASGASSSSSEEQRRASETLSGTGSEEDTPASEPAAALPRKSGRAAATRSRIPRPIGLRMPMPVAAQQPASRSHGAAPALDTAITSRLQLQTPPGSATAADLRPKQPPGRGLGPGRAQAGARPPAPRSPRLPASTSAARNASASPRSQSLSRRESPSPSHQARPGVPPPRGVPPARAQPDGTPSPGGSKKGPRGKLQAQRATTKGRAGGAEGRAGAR
Excerpt: as §3

p38a MAPK = p38a MAPK (Homo sapiens, UniProt Q16539); assay: Kinase panel, radiometric 33P filter binding; details: read-out: % activity remaining
Chain of p38a MAPK (Q16539 whole entry): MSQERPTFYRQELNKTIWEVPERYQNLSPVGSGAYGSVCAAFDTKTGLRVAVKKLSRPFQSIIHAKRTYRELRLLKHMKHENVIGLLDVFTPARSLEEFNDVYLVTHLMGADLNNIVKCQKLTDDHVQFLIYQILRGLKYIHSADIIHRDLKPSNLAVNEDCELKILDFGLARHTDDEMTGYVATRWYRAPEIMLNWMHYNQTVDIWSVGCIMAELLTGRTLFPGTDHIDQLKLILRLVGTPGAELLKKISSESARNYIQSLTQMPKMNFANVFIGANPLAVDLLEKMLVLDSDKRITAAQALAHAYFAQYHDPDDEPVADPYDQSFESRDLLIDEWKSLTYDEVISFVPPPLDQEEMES
Excerpt: as §3

SIK3 = SIK3 (Homo sapiens, UniProt Q9Y2K2); assay: Kinase panel, radiometric 33P filter binding; details: read-out: % activity remaining
Excerpt: as §3

PKCγ = PKCγ (Homo sapiens, UniProt P05129); assay: Kinase panel, radiometric 33P filter binding; details: read-out: % activity remaining
Excerpt: as §3

PRK2 = PRK2 (Homo sapiens, UniProt Q16513); assay: Kinase panel, radiometric 33P filter binding; details: read-out: % activity remaining
Excerpt: as §3

AMPK (hum) = AMPK (hum) (Homo sapiens, UniProt Q13131); assay: Kinase panel, radiometric 33P filter binding; details: read-out: % activity remaining
Excerpt: as §3

DYRK1A = DYRK1A (Homo sapiens, UniProt Q13627); assay: Kinase panel, radiometric 33P filter binding; details: read-out: % activity remaining
Excerpt: as §3

PKBa = PKBa (Homo sapiens, UniProt P31749); assay: Kinase panel, radiometric 33P filter binding; details: read-out: % activity remaining
Excerpt: as §3

ULK2 = ULK2 (Homo sapiens, UniProt Q8IYT8); assay: Kinase panel, radiometric 33P filter binding; details: read-out: % activity remaining
Chain of ULK2 (Q8IYT8 whole entry): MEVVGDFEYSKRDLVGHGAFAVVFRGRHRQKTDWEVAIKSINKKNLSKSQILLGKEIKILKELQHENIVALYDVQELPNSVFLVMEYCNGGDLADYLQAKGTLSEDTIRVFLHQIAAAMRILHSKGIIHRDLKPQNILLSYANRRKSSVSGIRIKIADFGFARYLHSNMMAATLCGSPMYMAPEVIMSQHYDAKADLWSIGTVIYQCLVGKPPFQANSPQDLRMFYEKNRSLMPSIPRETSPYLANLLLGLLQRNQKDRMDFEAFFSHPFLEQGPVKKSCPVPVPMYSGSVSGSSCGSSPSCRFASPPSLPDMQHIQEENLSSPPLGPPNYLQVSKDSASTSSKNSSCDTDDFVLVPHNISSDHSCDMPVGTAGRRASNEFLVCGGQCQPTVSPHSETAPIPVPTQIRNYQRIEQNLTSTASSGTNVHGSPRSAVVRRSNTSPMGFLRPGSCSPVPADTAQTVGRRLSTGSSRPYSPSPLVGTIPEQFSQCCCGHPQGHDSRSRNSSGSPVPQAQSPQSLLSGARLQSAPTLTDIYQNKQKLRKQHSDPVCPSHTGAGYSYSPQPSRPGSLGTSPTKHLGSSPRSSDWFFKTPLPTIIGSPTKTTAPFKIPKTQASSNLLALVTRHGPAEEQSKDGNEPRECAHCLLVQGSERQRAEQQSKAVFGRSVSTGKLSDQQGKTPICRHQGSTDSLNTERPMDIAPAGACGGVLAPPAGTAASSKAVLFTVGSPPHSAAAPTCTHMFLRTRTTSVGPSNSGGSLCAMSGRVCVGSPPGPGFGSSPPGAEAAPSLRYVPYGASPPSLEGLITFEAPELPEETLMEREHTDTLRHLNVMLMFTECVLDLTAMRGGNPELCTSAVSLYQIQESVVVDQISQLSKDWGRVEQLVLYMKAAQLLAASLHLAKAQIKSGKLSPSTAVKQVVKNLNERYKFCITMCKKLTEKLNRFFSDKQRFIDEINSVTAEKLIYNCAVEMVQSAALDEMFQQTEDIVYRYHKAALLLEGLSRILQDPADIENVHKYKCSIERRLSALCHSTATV
Excerpt: as §3

TLK1 = TLK1 (Homo sapiens, UniProt Q9UKI8); assay: Kinase panel, radiometric 33P filter binding; details: read-out: % activity remaining
Excerpt: as §3

CK1δ = CK1δ (Homo sapiens, UniProt P48730); assay: Kinase panel, radiometric 33P filter binding; details: read-out: % activity remaining
Excerpt: as §3

ERK8 = ERK8 (Homo sapiens, UniProt Q8TD08); assay: Kinase panel, radiometric 33P filter binding; details: read-out: % activity remaining
Excerpt: as §3

DDR2 = DDR2 (Homo sapiens, UniProt Q16832); assay: Kinase panel, radiometric 33P filter binding; details: read-out: % activity remaining
Excerpt: as §3

`CC(C)c1ccccc1-c1nc(NCc2ccccn2)c2c(ccn2C)n1` [Compound 40] was tested, and the remaining activity at 10 µM (Choline Kinase beta) was 97.3%, the remaining activity at 10 µM (DGK beta) was 102% and the remaining activity at 10 µM (SPHK2) was 83.8%. For the same compound, the remaining activity at 10 µM (PI3Kalpha) was 91.4%, the remaining activity at 10 µM (PI3K gamma) was 103% and the “% activity remaining” value (PI3Ka E524K +P85) was 102.0%. It also gave a remaining activity at 10 µM (PIP5K2a) of 100%, a remaining activity at 10 µM (PI4K2a) of 93.5% and a remaining activity at 10 µM (PIK4Ca) of 81.1%. For the same compound, the remaining activity at 10 µM (PI3KA E545K +P85) was 91.7%, the remaining activity at 10 µM (MLK1) was 89% and the remaining activity at 10 µM (BRK) was 112%. It also gave a remaining activity at 10 µM (BRSK2) of 83%, a remaining activity at 10 µM (EPH-A4) of 96% and a remaining activity at 10 µM (MST2) of 115%. It also gave a remaining activity at 10 µM (PIM3) of 87%, a remaining activity at 10 µM (FGF-R1) of 92% and a remaining activity at 10 µM (GCK) of 93%. It also gave a remaining activity at 10 µM (CHK2) of 110%, a remaining activity at 10 µM (MSK1) of 95% and a remaining activity at 10 µM (Aurora B) of 113%. The remaining activity at 10 µM (WNK1) was 112%, the remaining activity at 10 µM (HIPK2) was 114% and the remaining activity at 10 µM (ERK1) was 111%. For the same compound, the remaining activity at 10 µM (PAK6) was 95%, the remaining activity at 10 µM (TTBK1) was 117% and the remaining activity at 10 µM (p38a MAPK) was 100%. It also gave a remaining activity at 10 µM (SIK3) of 111%, a remaining activity at 10 µM (PKCγ) of 77% and a remaining activity at 10 µM (PRK2) of 83%. The remaining activity at 10 µM (AMPK (hum)) was 88%, the remaining activity at 10 µM (DYRK1A) was 101% and the remaining activity at 10 µM (PKBa) was 103%. It also gave a remaining activity at 10 µM (ULK2) of 91%, a remaining activity at 10 µM (TLK1) of 115% and a remaining activity at 10 µM (CK1δ) of 100%. For the same compound, the remaining activity at 10 µM (ERK8) was 109% and the remaining activity at 10 µM (DDR2) was 90%.

Source: article PMC9097471, “Development of Selective Phosphatidylinositol 5-Phosphate 4-Kinase γ Inhibitors with a Non-ATP-competitive, Allosteric Binding Mode” (Journal of Medicinal Chemistry, 2022)
